Measurements published in patent US9249163B2, “PDE10a inhibitors for the treatment of type II diabetes” (Janssen Pharmaceutica, NV, priority 2013, dated 2016).
Counter-ions that a name gives are not always drawn.

Tests used:
[1] = molecular target: Rat recombinant PDE10a (rPDE10a) (Rattus norvegicus (Rat), UniProt Q9QYJ6); assay: In vitro assay PDE10a (rat recombinant PDE10a, SPA); type: biochemical; conditions: 60 nM cAMP, 60 min at rt, read-out: rPDE10a2 IC50
Method in brief: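 Rat PDE10a expressed in Sf9 cells (baculovirus) and Ni-sepharose purified. Incubated with compound for 60 min at rt in 50 mM Tris pH 7.8, 8.3 mM MgCl2, 1.7 mM EGTA with 60 nM cAMP plus 0.008 μCi ^3H-cAMP (final), 1% DMSO. Read-out by PDE SPA bead scintillation counting (cpm), no-enzyme blank.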

[2] = molecular target: Human recombinant PDE10A2 (Homo sapiens (Human), UniProt Q9Y233); assay: In vitro hPDE10a (human recombinant PDE10A2, scintillation proximity assay); type: biochemical; conditions: human recombinant PDE10A2, 60 nM cAMP, 60 min at room temperature; read-out: hPDE10a2 IC50
[3] = PDE10a-perfused brain permeability study (plasma and brain concentrations); conditions: male, Sprague-Dawley, rat; for Kp at 2 h: brain/plasma
Procedure: Drug administration by oral gavage, subcutaneous injection or intravenous was carried out using male Sprague Dawley rats under IACUC protocol (SH-MET3010). Male Sprague Dawley rats (Charles River) ˜300-350 g were maintained on a 4% standard rodent diet (Test Diet 5001). They are allowed ad libitum access to water and food. Room temperature was maintained at 64° F. and humidity at 30-70%.
Three animals per compound were provided a dose of 2 mg/mL in 20% HpbCD/Tris pH 8 by tail i.v. or 30 mpk p.o. or s.c. in 20% HpbCD/Tris pH 8, with PDE10a antagonists. A first blood sample was collected at 30 min via retro-orbital sinus (anesthetic by 70% CO2/30% O2) into heparinzed plasma separator tubes. The blood was centrifuged and 100 uL plasma was placed into a 96 well plate and saved on dry ice.
After the 120 min, the final blood sample was collected via retro-orbital sinus under anesthesia by IP 0.5 cc injection of a 4/1 mixture of Ketaset: AnaSed [(prepared 10 mL Ketaset (100 mg/mL Ketamine)+2.5 mL AnaSed (20 mg/mL Xylazine)]. The rats were then perfused with 400 mL heparinized saline (10,000 units/L) through the left ventricle of the heart; the brains were then removed (not including the medulla), weighed and homogenized in PBS (4 mL/g tissue). The samples were stored at −80° C. and submitted for chemical analysis of blood and brain concentrations. Endpoints of sample analysis consists of the plasma concentrations at 30 and 120 min, plus brain concentrations at 120 min.

Sequence of Rat recombinant PDE10a (rPDE10a) (Q9QYJ6 whole entry): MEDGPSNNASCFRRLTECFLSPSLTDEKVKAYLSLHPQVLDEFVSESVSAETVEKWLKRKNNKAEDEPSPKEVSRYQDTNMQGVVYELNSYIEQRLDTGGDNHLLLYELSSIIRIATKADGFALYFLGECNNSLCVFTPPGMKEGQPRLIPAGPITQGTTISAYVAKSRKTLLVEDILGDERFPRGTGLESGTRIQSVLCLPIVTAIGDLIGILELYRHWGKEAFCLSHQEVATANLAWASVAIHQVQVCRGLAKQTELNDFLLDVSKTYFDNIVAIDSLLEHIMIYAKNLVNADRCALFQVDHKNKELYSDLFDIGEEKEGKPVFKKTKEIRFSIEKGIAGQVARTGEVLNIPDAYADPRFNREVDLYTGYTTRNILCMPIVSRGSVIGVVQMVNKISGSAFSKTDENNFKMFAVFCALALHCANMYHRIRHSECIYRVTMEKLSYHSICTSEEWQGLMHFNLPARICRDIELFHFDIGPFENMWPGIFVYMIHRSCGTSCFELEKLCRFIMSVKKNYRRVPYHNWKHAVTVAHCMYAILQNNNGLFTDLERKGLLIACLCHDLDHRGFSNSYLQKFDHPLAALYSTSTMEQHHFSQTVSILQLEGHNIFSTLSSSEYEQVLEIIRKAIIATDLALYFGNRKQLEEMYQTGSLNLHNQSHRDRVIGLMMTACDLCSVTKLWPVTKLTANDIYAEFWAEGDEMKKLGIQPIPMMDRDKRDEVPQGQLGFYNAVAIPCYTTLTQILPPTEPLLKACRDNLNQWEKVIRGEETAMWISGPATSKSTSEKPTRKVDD
Sequence of Human recombinant PDE10A2 (Q9Y233 267-1055): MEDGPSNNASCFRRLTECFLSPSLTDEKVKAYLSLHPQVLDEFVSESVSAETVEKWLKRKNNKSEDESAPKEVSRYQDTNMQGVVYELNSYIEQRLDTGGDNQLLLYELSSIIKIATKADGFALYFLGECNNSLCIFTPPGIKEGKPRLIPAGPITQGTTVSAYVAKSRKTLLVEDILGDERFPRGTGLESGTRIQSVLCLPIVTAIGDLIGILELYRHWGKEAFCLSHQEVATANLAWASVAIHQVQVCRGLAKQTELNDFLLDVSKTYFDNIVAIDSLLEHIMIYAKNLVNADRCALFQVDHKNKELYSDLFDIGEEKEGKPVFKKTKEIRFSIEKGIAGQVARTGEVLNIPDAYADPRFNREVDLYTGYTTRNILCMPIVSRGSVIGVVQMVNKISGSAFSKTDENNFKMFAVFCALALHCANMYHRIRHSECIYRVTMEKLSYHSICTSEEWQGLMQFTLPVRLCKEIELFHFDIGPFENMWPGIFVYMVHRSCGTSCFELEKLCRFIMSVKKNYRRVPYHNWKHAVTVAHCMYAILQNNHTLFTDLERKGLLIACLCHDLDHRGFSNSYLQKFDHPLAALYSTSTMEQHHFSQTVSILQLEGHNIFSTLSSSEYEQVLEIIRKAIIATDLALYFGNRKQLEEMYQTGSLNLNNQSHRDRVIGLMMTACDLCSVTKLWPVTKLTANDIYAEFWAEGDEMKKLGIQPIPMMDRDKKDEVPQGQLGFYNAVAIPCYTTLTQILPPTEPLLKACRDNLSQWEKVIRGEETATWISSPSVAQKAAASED

Row | SMILES | IC50 [1] | IC50 [2] | concentration at 2 h ([3]; brain) | Kp at 2 h [3] | concentration at 2 h ([3]; plasma)
1 | O=C(O)C1CCN(c2ccc(-c3cnc(N4CCOCC4)c4nc(/C=C/c5ccc6ccccc6n5)cn34)cc2)CC1 [Cpd 14, (E)-1-(4-(8-Morpholino-2-(2-(quinolin-2-yl)vinyl)imidazo[1,2-a]pyrazin-5-yl)phenyl)piperidine-4-carboxylic acid trifluoroacetic acid salt] | 0.011 µM | 0.006 µM | 35.5 ng/g | 0.07 | 0.503 µg/mL
2 | O=C(O)c1ccc(-c2cnc(N3CCOCC3)c3nc(/C=C/c4ccc5ccccc5n4)cn23)cc1 [Cpd 16, (E)-4-(8-morpholino-2-(2-(quinolin-2-yl)vinyl)imidazo[1,2-a]pyrazin-5-yl)benzoic acid trifluoroacetic acid salt] | – | – | 0 ng/g | 0 | 0.142 µg/mL
3 | O=c1[nH]nnn1-c1ccc(-c2cnc(N3CCOCC3)c3nc(/C=C/c4ccc5ccccc5n4)cn23)cc1 [Cpd 55, (E)-1-(4-(8-Morpholino-2-(2-(quinolin-2-yl)vinyl)imidazo[1,2-a]pyrazin-5-yl)phenyl)-1H-tetrazol-5(4H)-one] | – | – | 0 ng/g | 0 | 0.118 µg/mL
4 | C(=C\c1ncccn1)/c1cn2c(-c3ccc(N4CCNCC4)nc3)cnc(N3CCOCC3)c2n1 [Cpd 103, (E)-4-(5-(6-(Piperazin-1-yl)pyridin-3-yl)-2-(2-(pyrimidin-2-yl)vinyl)imidazo[1,2-a]pyrazin-8-yl)morpholine] | 0.617 µM | 0.676 µM | – | – | –
5 | C(=C\c1cn2c(-c3ccc(N4CCNCC4)nc3)cnc(N3CCOCC3)c2n1)/c1ccc2ccccc2n1 [Cpd 105, (E)-4-(5-(6-(piperazin-1-yl)pyridin-3-yl)-2-(2-(quinolin-2-yl)vinyl)imidazo[1,2-a]pyrazin-8-yl)morpholine trifluoroacetic acid salt] | 0.022 µM | 0.05 µM | – | – | –
6 | c1ccc2nc(OCc3cn4c(-c5ccc(C6CCNCC6)nc5)cnc(N5CCOCC5)c4n3)ccc2c1 [Cpd 106, 4-(5-(6-(Piperidin-4-yl)pyridin-3-yl)-2-((quinolin-2-yloxy)methyl)imidazo[1,2-a]pyrazin-8-yl)morpholine trifluoroacetic acid salt] | 0.015 µM | 0.089 µM | – | – | –
7 | CC(=O)N1CCN(c2ncc(-c3ccc(N4CCNCC4)nc3)n3cc(COc4ccc5ccccc5n4)nc23)CC1 [Cpd 113] | 0.151 µM | 0.224 µM | – | – | –
8 | c1ccc2nc(C3CN(c4cn5c(-c6ccc(N7CCNCC7)nc6)cnc(N6CCOCC6)c5n4)C3)ccc2c1 [Cpd 114, 4-(5-(6-(piperazin-1-yl)pyridin-3-yl)-2-(3-(quinolin-2-yl)azetidin-1-yl)imidazo[1,2-a]pyrazin-8-yl)morpholine trifluoroacetic acid salt] | 2 µM | 1.35 µM | – | – | –
9 | c1cnc(OCc2cn3c(-c4ccc(N5CCNCC5)nc4)cnc(N4CCOCC4)c3n2)nc1 [Cpd 116, 4-(5-(6-(piperazin-1-yl)pyridin-3-yl)-2-((pyrimidin-2-yloxy)methyl)imidazo[1,2-a]pyrazin-8-yl)morpholine trifluoroacetic acid salt] | 3.63 µM | 2.63 µM | – | – | –
10 | O=S1(=O)CCN(c2ncc(-c3ccc(N4CCNCC4)nc3)n3cc(COc4ccc5ccccc5n4)nc23)CC1 [Cpd 117, 4-(5-(6-(Piperazin-1-yl)pyridin-3-yl)-2-((quinolin-2-yloxy)methyl)imidazo[1,2-a]pyrazin-8-yl)thiomorpholine 1,1-dioxide trifluoroacetic acid salt] | 0.032 µM | 0.056 µM | – | – | –
11 | c1ccc2nc(OCc3cn4c(-c5ccc(N6CCNCC6)nc5)cnc(N5CCOCC5)c4n3)ncc2c1 [Cpd 124, 4-(5-(6-(Piperazin-1-yl)pyridin-3-yl)-2-((quinazolin-2-yloxy)methyl)imidazo[1,2-a]pyrazin-8-yl)morpholine trifluoroacetic acid salt] | 0.123 µM | 0.115 µM | – | – | –
12 | Clc1c(N2CC(c3ccc4ccccc4n3)C2)nc2c(N3CCOCC3)ncc(-c3ccc(N4CCNCC4)nc3)n12 [Cpd 132, 4-(3-Chloro-5-(6-(piperazin-1-yl)pyridin-3-yl)-2-(3-(quinolin-2-yl)azetidin-1-yl)imidazo[1,2-a]pyrazin-8-yl)morpholine trifluoroacetic acid salt] | 0.871 µM | 1.62 µM | – | – | –
13 | c1ccc2nc(OCc3cn4c(-c5ccc(N6CCNCC6)nc5)cnc(C5CCOCC5)c4n3)ccc2c1 [compound 83, 2-((5-(6-(piperazin-1-yl)pyridin-3-yl)-8-(tetrahydro-2H-pyran-4-yl)imidazo[1,2-a]pyrazin-2-yl)methoxy)quinoline trifluoroacetic acid salt] | 0.269 µM | 0.316 µM | – | – | –

Further lines, results first:

Row | IC50 [1] | IC50 [2] | concentration at 2 h ([3]; brain) | Kp at 2 h [3] | concentration at 2 h ([3]; plasma) | SMILES
14 | < 0.001 µM | – | 0 ng/g | 0 | 0.002 µg/mL | CC(=O)NS(=O)(=O)c1ccc(-c2cnc(N3CCOCC3)c3nc(CCc4ccc5ccccc5n4)cn23)cc1 [Cpd 63, N-((4-(8-Morpholino-2-(2-(quinolin-2-yl)ethyl)imidazo[1,2-a]pyrazin-5-yl)phenyl)sulfonyl)acetamide]
15 | 0.038 µM | 0.029 µM | – | – | – | c1ccc2nc(OCc3cn4c(-c5ccc(Sc6nnc[nH]6)nc5)cnc(N5CCOCC5)c4n3)ccc2c1 [Cpd 100, 4-(5-(6-((4H-1,2,4-triazol-3-yl)thio)pyridin-3-yl)-2-((quinolin-2-yloxy)methyl)imidazo[1,2-a]pyrazin-8-yl)morpholine]
16 | 0.02 µM | 0.015 µM | – | – | – | O=C(O)Cc1ccc(-c2cnc(N3CCOCC3)c3nc(COc4ccc5ccccc5n4)cn23)cn1 [Cpd 101, 2-(5-(8-Morpholino-2-((quinolin-2-yloxy)methyl)imidazo[1,2-a]pyrazin-5-yl)pyridin-2-yl)acetic acid]
17 | 0.017 µM | 0.035 µM | – | – | – | c1ccc2nc(CCc3cn4c(-c5ccc(N6CCNCC6)nc5)cnc(N5CCOCC5)c4n3)ccc2c1 [Cpd 102, 4-(5-(6-(piperazin-1-yl)pyridin-3-yl)-2-(2-(quinolin-2-yl)ethyl)imidazo[1,2-a]pyrazin-8-yl)morpholine trifluoroacetic acid salt]
18 | 0.068 µM | 0.129 µM | – | – | – | C(=C\c1ncc2ccccc2n1)/c1cn2c(-c3ccc(N4CCNCC4)nc3)cnc(N3CCOCC3)c2n1 [Cpd 104, (E)-4-(5-(6-(Piperazin-1-yl)pyridin-3-yl)-2-(2-(quinazolin-2-yl)vinyl)imidazo[1,2-a]pyrazin-8-yl)morpholine]
19 | 0.023 µM | 0.035 µM | – | – | – | C1=C(c2ccc(-c3cnc(N4CCOCC4)c4nc(COc5ccc6ccccc6n5)cn34)cn2)CCNC1 [Cpd 108, 4-(2-((quinolin-2-yloxy)methyl)-5-(1′,2′,3′,6′-tetrahydro-[2,4′-bipyridin]-5-yl)imidazo[1,2-a]pyrazin-8-yl)morpholine methane sulfonic acid salt]
20 | 0.095 µM | 0.089 µM | – | – | – | COC1CCN(c2ncc(-c3ccc(N4CCNCC4)nc3)n3cc(COc4ccc5ccccc5n4)nc23)CC1 [Cpd 112, 2-((8-(4-Methoxypiperidin-1-yl)-5-(6-(piperazin-1-yl)pyridin-3-yl)imidazo[1,2-a]pyrazin-2-yl)methoxy)quinoline trifluoroacetic acid salt]
21 | 0.04 µM | 0.085 µM | – | – | – | O=C1CN(c2ncc(-c3ccc(N4CCNCC4)nc3)n3cc(COc4ccc5ccccc5n4)nc23)CCN1 [Cpd 115, 4-(5-(6-(piperazin-1-yl)pyridin-3-yl)-2-((quinolin-2-yloxy)methyl)imidazo[1,2-a]pyrazin-8-yl)piperazin-2-one trifluoroacetic acid salt]
22 | 0.03 µM | 0.078 µM | – | – | – | OC1CCN(c2ncc(-c3ccc(N4CCNCC4)nc3)n3cc(COc4ccc5ccccc5n4)nc23)CC1 [Cpd 118, 1-(5-(6-(Piperazin-1-yl)pyridin-3-yl)-2-((quinolin-2-yloxy)methyl)imidazo[1,2-a]pyrazin-8-yl)piperidin-4-ol trifluoroacetic acid salt]
23 | 0.015 µM | 0.02 µM | – | – | – | c1ccc2nc(OCc3cn4c(-c5ccc(N6CCNCC6)nc5)cnc(-c5ccncc5)c4n3)ccc2c1 [Cpd 120, 2-((5-(6-(Piperazin-1-yl)pyridin-3-yl)-8-(pyridin-4-yl)imidazo[1,2-a]pyrazin-2-yl)methoxy)quinoline trifluoroacetic acid salt]
24 | 0.008 µM | – | 98.2 ng/g | – | 0.0356 µg/mL | Nc1ccc(-c2cnc(N3CCOCC3)c3nc(COc4ccc5ccccc5n4)cn23)cn1 [Cpd 122, 5-(8-Morpholino-2-((quinolin-2-yloxy)methyl)imidazo[1,2-a]pyrazin-5-yl)pyridin-2-amine methane sulfonic acid salt]
25 | 0.008 µM | 0.019 µM | – | – | – | CN1CCN(c2ncc(-c3cnc(N4CCOCC4)c4nc(COc5ccc6ccccc6n5)cn34)cn2)CC1 [Cpd 123, 4-(5-(2-(4-Methylpiperazin-1-yl)pyrimidin-5-yl)-2-((quinolin-2-yloxy)methyl)imidazo[1,2-a]pyrazin-8-yl)morpholine methane sulfonic acid salt]
26 | 0.03 µM | 0.062 µM | – | – | – | CN(C)c1ccc(-c2cnc(N3CCOCC3)c3nc(COc4ccc5ccccc5n4)cn23)cn1 [Cpd 127, N,N-Dimethyl-5-(8-morpholino-2-((quinolin-2-yloxy)methyl)imidazo[1,2-a]pyrazin-5-yl)pyridin-2-amine methane sulfonic acid salt]
27 | 0.016 µM | 0.042 µM | – | – | – | CN1CCN(c2ccc(-c3cnc(N4CCOCC4)c4nc(COc5ccc6ccccc6n5)cn34)cn2)CC1 [Cpd 130, 4-(5-(6-(4-Methylpiperazin-1-yl)pyridin-3-yl)-2-((quinolin-2-yloxy)methyl)imidazo[1,2-a]pyrazin-8-yl)morpholine]
